{
  "source": "patent US20170051149A1",
  "about": "“AZOARYLS AS REVERSIBLY MODULATABLE TUBULIN INHIBITORS” (ECOLE NORMALE SUPERIEURE DE LYON, priority 2014, published 2017)",
  "key": {"HeLa cells [1]": {"system": "HeLa cells", "assay": "MTT assay", "assay_type": "cell-based", "details": "50 nM, 48 h", "excerpt": "The cytotoxic properties of I.1 were subsequently confirmed with another method, using the quantification of mitochondrial dehydrogenase activity of cells as determined by the level of 3-(4.5-dimethylthiazol-2-yl)-2.5-diphenyl tetrazolium bromide (MTT) reduction to its purple formazan, according to standard protocol^[30]. […] Cells were kept in the dark, or exposed to a pulsed toxic regime of 390 nm only, or exposed to a strong rescue protocol with pulses of 390 nm then 505 nm light. Pulses of light were applied every 30 s; 390 nm light pulses lasted 150 ms every 30 s, while the 505 nm light pulses were applied for 500 ms; in the strong rescue regime, the 505 nm pulse was synchronised so that it began immediately after the 390 nm pulse ended.\nCellular viability was measured 48 h later, namely, cells were incubated with MTT for three hours and after dissolution of the formazan crystals with DMSO, absorbance at 550 nm was measured using a FLUOstar Omega microplate reader. Results are shown in Table 5 below and are expressed as a fold growth relative to the control growth of the cells treated only with a co-solvent (0.5% MeCN) and represent mean and standard deviation of quadruplicates of the optical density values, which are proportional to the cell number."}, "HEK-293T cells": {"system": "HEK-293T cells", "assay": "MTT assay, light-dependent cell proliferation", "assay_type": "cell-based", "details": "72 h"}, "HEK-293": {"system": "HEK-293", "assay": "cell cycle analysis by PI flow cytometry", "assay_type": "cell-based", "details": "15 nM, 30 h", "description": "(§1) The effect of compound I.1 on cell cycle progression was assessed by flow cytometry. Briefly, following the application of compound I.1 and exposure to the indicated light regime, cells were harvested on ice and incubated in a hypotonic buffer [0.1% sodium citrate, 0.1% Triton X-100 and 50 μg/mL propidium iodide (PI)] for 30 min at 4° C. Following the PI staining cells were analysed by flow cytometry using FACSCalibur flow cytometer (Becton Dickinson, Heidelberg, Germany) and Cell Quest Pro Software (Becton Dickinson). Subsequently the cell cycle analysis was performed using the FlowJo software (Tree Star Inc., Ashland, Oreg., USA)."}, "HeLa [2]": {"system": "HeLa", "assay": "cell cycle analysis by PI flow cytometry", "assay_type": "cell-based", "details": "15 nM, 30 h", "description": "as §1"}, "MDA-MB-231 cells": {"system": "MDA-MB-231 cells", "assay": "cell cycle analysis by PI flow cytometry", "assay_type": "cell-based", "details": "15 nM, 30 h", "description": "as §1"}, "HeLa [3]": {"system": "HeLa", "assay": "membrane permeability, PI uptake in nonpermeabilized cells", "assay_type": "cell-based", "details": "15 nM, 70 h", "description": "(§2) Membrane integrity was assessed as a marker of cellular viability, via examining the uptake of propidium iodide (PI) in nonpermeabilized cells according to a standard protocol. Namely, cells were harvested and incubated with 5 μg/mL PI in PBS containing 2% FCS (foetal calf serum), and immediately analysed by flow cytometry using a FACSCalibur flow cytometer."}, "Jurkat cells [4]": {"system": "Jurkat cells", "assay": "membrane permeability, PI uptake in nonpermeabilized cells", "assay_type": "cell-based", "details": "15 nM, 48 h", "description": "as §2"}, "MDA-MB-231": {"system": "MDA-MB-231", "assay": "membrane permeability, PI uptake in nonpermeabilized cells", "assay_type": "cell-based", "details": "15 nM, 70 h", "description": "as §2"}, "HeLa cells [5]": {"system": "HeLa cells", "assay": "nuclear fragmentation (subG1, Nicoletti), induction of apoptosis", "assay_type": "cell-based", "details": "15 nM, 30 h", "description": "(§3) Different cell types, including MDA-MB-231, Jurkat, HeLa and HepG2 cells, were treated with indicated concentrations of compound I.1 and exposed to a 390 nm toxic regime, a rescue regime with both 390 nm and 515 nm light, or kept in the dark. Following the treatment, cells were stained with PI and the percentage of cells containing a hypodiploid amount of DNA (subG1 phase of cell cycle), was determined. Briefly, prior to analysis, cells were harvested on ice and incubated in a hypotonic buffer [0.1% sodium citrate, 0.1% Triton X-100 and 50 μg/mL propidium iodide (PI)] for 30 min at 4° C. Following the PI staining cells were analysed by flow cytometry using FACSCalibur flow cytometer (Becton Dickinson, Heidelberg, Germany) and Cell Quest Pro Software (Becton Dickinson)."}, "Jurkat cells [6]": {"system": "Jurkat cells", "assay": "nuclear fragmentation (subG1, Nicoletti), induction of apoptosis", "assay_type": "cell-based", "details": "48 h", "description": "as §3"}, "tubulin": {"system": "tubulin", "details": "trans isomer; read-out: in vitro IC50, tubulin polymerisation; cited from earlier work"}},
  "data": [
    {"smiles": "COc1ccc(/C=C\\c2cc(OC)c(OC)c(OC)c2)cc1OP(=O)(O)O", "note": "[CA4P, fosbretabulin, reference compound]", "values": [
      {"measurement": "mean fold growth", "setting": "HeLa cells [1]; 390 nm (150 ms every 30 s)", "value": 0.38, "unit": "fold"},
      {"measurement": "mean fold growth", "setting": "HeLa cells [1]; Dark", "value": 0.29, "unit": "fold"},
      {"measurement": "fold growth relative to cosolvent control (MTT)", "setting": "HEK-293T cells; 5 nM, 390 nm, 0.35 s every 2 min", "value": 1.29},
      {"measurement": "fold growth relative to cosolvent control (MTT)", "setting": "HEK-293T cells; 5 nM, 390 nm, 0.35s then 490 nm, 3 s (rescue) every 2 min", "value": 1.28},
      {"measurement": "fold growth relative to cosolvent control (MTT)", "setting": "HEK-293T cells; 5 nM, 410 nm, 0.35 s every 2 min", "value": 1.19},
      {"measurement": "fold growth relative to cosolvent control (MTT)", "setting": "HEK-293T cells; 5 nM, 410 nm, 0.35 s then 505 nm, 3 s (rescue) every 2 min", "value": 1.20},
      {"measurement": "fold growth relative to cosolvent control (MTT)", "setting": "HEK-293T cells; 5 nM, 475 nm, 3 s every 2 min", "value": 1.12},
      {"measurement": "fold growth relative to cosolvent control (MTT)", "setting": "HEK-293T cells; 5 nM, 490 nm, 3 s every 2 min", "value": 1.43},
      {"measurement": "fold growth relative to cosolvent control (MTT)", "setting": "HEK-293T cells; 5 nM, 505 nm, 3 s every 2 min", "value": 1.07},
      {"measurement": "fold growth relative to cosolvent control (MTT)", "setting": "HEK-293T cells; 5 nM, 525 nm, 3 s every 2 min", "value": 0.86},
      {"measurement": "fold growth relative to cosolvent control (MTT)", "setting": "HEK-293T cells; 5 nM, Dark", "value": 0.82},
      {"measurement": "fold growth relative to cosolvent control (MTT)", "setting": "HEK-293T cells; 15 nM, 390 nm, 0.35 s every 2 min", "value": 0.88},
      {"measurement": "fold growth relative to cosolvent control (MTT)", "setting": "HEK-293T cells; 15 nM, 390 nm, 0.35s then 490 nm, 3 s (rescue) every 2 min", "value": 0.82},
      {"measurement": "fold growth relative to cosolvent control (MTT)", "setting": "HEK-293T cells; 15 nM, 410 nm, 0.35 s every 2 min", "value": 0.80},
      {"measurement": "fold growth relative to cosolvent control (MTT)", "setting": "HEK-293T cells; 15 nM, 410 nm, 0.35 s then 505 nm, 3 s (rescue) every 2 min", "value": 0.81},
      {"measurement": "fold growth relative to cosolvent control (MTT)", "setting": "HEK-293T cells; 15 nM, 475 nm, 3 s every 2 min", "value": 0.70},
      {"measurement": "fold growth relative to cosolvent control (MTT)", "setting": "HEK-293T cells; 15 nM, 490 nm, 3 s every 2 min", "value": 0.97},
      {"measurement": "fold growth relative to cosolvent control (MTT)", "setting": "HEK-293T cells; 15 nM, 505 nm, 3 s every 2 min", "value": 0.75},
      {"measurement": "fold growth relative to cosolvent control (MTT)", "setting": "HEK-293T cells; 15 nM, 525 nm, 3 s every 2 min", "value": 0.81},
      {"measurement": "fold growth relative to cosolvent control (MTT)", "setting": "HEK-293T cells; 15 nM, Dark", "value": 0.79},
      {"measurement": "mean % G2/M phase", "setting": "HEK-293; 390 nm (1 s every 15 min)", "value": 70.1, "unit": "%"},
      {"measurement": "mean % G2/M phase", "setting": "HEK-293; dark", "value": 72.0, "unit": "%"},
      {"measurement": "mean % G2/M phase", "setting": "HeLa [2]; 390 nm (1 s every 15 min)", "value": 69.5, "unit": "%"},
      {"measurement": "mean % G2/M phase", "setting": "HeLa [2]; dark", "value": 69.0, "unit": "%"},
      {"measurement": "mean % G2/M phase", "setting": "MDA-MB-231 cells; 390 nm (1 s every 15 min)", "value": 50.9, "unit": "%"},
      {"measurement": "mean % G2/M phase", "setting": "MDA-MB-231 cells; dark", "value": 51.3, "unit": "%"},
      {"measurement": "mean % cells PI+", "setting": "HeLa [3]; 390 nm (1 s every 15 min)", "value": 63.9, "unit": "%"},
      {"measurement": "mean % cells PI+", "setting": "HeLa [3]; dark", "value": 62.5, "unit": "%"},
      {"measurement": "mean % cells PI+", "setting": "Jurkat cells [4]; 390 nm (350 ms every 5 min)", "value": 5.7, "unit": "%"},
      {"measurement": "mean % cells PI+", "setting": "Jurkat cells [4]; dark", "value": 8.0, "unit": "%"},
      {"measurement": "mean % cells PI+", "setting": "MDA-MB-231; 390 nm (1 s every 15 min)", "value": 43.2, "unit": "%"},
      {"measurement": "mean % cells PI+", "setting": "MDA-MB-231; dark", "value": 45.1, "unit": "%"},
      {"measurement": "mean % subG1 phase", "setting": "HeLa cells [5]; 390 nm light (1 s pulses every 15 min)", "value": 12.3, "unit": "%"},
      {"measurement": "mean % subG1 phase", "setting": "HeLa cells [5]; dark", "value": 11.5, "unit": "%"},
      {"measurement": "mean % subG1 phase", "setting": "Jurkat cells [6]; 5 nM, 390 nm (350 ms pulses every 5 min)", "value": 40.4, "unit": "%"},
      {"measurement": "mean % subG1 phase", "setting": "Jurkat cells [6]; 5 nM, dark", "value": 37.5, "unit": "%"},
      {"measurement": "mean % subG1 phase", "setting": "Jurkat cells [6]; 15 nM, 390 nm (350 ms pulses every 5 min)", "value": 91.5, "unit": "%"},
      {"measurement": "mean % subG1 phase", "setting": "Jurkat cells [6]; 15 nM, dark", "value": 89.7, "unit": "%"}
    ]},
    {"smiles": "CCCCCCCOc1ccc(/N=N/c2ccc(CNN[C@H](C=O)CCCCN)cc2)cc1", "note": "[P1]", "values": [
      {"measurement": "IC50", "setting": "tubulin", "value": "~100", "unit": "µM"}
    ]}
  ]
}
